We go through 13 molecules from ChEMBL document CHEMBL3991601, “The target landscape of clinical kinase drugs” (Science, 2017).

For experiment [1], the target named is T1, Serine/threonine-protein kinase LATS1 (Homo sapiens, UniProt O95835).
T1 sequence (O95835 whole entry): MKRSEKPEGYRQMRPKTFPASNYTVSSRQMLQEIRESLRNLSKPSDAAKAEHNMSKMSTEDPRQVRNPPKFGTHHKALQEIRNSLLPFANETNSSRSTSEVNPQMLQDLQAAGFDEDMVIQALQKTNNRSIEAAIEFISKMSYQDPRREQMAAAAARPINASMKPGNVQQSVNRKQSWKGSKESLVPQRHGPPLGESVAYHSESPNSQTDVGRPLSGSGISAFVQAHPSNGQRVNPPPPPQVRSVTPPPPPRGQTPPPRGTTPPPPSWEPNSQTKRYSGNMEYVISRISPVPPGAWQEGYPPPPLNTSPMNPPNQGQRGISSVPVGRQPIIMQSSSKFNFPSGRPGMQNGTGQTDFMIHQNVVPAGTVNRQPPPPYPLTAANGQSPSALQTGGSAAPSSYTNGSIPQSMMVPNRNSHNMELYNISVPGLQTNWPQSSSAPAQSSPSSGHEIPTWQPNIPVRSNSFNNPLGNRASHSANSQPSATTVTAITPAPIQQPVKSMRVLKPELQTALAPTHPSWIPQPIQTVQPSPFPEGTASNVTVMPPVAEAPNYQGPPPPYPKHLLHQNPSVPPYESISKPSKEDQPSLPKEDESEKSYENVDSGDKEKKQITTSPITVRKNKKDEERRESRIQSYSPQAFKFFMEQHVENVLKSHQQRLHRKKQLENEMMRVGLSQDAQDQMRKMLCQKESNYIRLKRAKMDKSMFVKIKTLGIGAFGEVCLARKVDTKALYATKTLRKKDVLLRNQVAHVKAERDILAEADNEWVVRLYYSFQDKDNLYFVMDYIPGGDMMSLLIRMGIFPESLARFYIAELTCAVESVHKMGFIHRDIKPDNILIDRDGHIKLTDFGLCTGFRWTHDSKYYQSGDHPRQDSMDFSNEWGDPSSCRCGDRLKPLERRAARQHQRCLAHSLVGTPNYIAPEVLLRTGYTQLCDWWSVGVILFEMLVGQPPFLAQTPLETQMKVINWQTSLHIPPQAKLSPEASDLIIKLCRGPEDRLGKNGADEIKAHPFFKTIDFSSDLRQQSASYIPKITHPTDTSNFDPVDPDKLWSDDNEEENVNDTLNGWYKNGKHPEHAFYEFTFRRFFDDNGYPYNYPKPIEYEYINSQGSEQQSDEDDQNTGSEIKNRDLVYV

For experiment [2], the target named is Mitogen-activated protein kinase 11 (Homo sapiens, UniProt Q15759).
Experiment [3] deals with Glycogen synthase kinase-3 beta (Homo sapiens, UniProt P49841).
The target of experiment [4] is Tyrosine-protein kinase CSK (Homo sapiens, UniProt P41240).
In the next experiment the target is GTP-binding protein 4 (Homo sapiens, UniProt Q9BZE4).
The target of experiment [5] is Mitogen-activated protein kinase 14 (Homo sapiens, UniProt Q16539).
The target in experiment [6] is T2, Mitogen-activated protein kinase kinase kinase kinase 3 (Homo sapiens, UniProt Q8IVH8).
T2 sequence (Q8IVH8 whole entry): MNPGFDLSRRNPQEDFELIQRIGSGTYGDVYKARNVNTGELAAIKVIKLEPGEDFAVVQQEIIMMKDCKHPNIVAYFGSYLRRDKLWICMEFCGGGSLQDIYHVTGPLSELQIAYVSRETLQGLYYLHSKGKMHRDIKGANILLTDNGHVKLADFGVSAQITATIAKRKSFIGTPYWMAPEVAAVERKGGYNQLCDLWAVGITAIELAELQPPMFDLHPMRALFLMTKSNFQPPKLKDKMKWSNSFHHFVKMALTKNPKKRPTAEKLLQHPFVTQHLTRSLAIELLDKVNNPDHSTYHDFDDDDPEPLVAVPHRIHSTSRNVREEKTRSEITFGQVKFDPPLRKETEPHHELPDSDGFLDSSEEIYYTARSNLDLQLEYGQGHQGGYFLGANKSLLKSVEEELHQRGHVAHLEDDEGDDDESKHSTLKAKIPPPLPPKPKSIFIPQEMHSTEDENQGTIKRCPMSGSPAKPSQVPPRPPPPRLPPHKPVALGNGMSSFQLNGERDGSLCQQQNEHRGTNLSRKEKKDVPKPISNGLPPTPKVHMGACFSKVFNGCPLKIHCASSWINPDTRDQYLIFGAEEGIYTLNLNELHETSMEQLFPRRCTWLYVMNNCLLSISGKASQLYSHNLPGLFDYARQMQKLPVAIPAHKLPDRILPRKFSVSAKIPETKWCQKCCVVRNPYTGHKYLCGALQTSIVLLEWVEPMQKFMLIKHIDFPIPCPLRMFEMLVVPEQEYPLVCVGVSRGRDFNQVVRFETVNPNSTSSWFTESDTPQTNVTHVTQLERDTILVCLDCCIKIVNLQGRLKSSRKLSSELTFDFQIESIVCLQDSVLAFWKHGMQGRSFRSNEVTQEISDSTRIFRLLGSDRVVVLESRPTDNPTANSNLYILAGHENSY

Experiment [7] addresses GTP-binding nuclear protein Ran (Homo sapiens, UniProt P62826).
The target of experiment [8] is Serine/threonine-protein kinase ATR (Homo sapiens, UniProt Q13535).

The Kd is the constant that tells how readily two partners part at equilibrium.

Activity calls are given as the source filed them. Rule as the data show it, for most assays here: actives have a measured Kd and inactives only a lower limit.
Also: in the data inactive means no Kd found up to 30 µM.

Sequence of Glycogen synthase kinase-3 beta (P49841 whole entry): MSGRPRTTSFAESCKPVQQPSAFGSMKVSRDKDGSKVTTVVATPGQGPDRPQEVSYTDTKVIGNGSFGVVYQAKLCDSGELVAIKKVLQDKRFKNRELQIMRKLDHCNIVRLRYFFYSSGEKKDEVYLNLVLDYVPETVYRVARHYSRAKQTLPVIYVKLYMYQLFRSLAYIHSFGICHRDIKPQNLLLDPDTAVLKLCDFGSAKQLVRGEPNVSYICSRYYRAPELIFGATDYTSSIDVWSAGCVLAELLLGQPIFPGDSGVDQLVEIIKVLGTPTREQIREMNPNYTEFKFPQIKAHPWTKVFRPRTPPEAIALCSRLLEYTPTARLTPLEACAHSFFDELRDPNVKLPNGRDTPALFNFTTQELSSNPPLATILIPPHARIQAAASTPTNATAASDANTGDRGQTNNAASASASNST
Sequence of Serine/threonine-protein kinase ATR (Q13535 whole entry): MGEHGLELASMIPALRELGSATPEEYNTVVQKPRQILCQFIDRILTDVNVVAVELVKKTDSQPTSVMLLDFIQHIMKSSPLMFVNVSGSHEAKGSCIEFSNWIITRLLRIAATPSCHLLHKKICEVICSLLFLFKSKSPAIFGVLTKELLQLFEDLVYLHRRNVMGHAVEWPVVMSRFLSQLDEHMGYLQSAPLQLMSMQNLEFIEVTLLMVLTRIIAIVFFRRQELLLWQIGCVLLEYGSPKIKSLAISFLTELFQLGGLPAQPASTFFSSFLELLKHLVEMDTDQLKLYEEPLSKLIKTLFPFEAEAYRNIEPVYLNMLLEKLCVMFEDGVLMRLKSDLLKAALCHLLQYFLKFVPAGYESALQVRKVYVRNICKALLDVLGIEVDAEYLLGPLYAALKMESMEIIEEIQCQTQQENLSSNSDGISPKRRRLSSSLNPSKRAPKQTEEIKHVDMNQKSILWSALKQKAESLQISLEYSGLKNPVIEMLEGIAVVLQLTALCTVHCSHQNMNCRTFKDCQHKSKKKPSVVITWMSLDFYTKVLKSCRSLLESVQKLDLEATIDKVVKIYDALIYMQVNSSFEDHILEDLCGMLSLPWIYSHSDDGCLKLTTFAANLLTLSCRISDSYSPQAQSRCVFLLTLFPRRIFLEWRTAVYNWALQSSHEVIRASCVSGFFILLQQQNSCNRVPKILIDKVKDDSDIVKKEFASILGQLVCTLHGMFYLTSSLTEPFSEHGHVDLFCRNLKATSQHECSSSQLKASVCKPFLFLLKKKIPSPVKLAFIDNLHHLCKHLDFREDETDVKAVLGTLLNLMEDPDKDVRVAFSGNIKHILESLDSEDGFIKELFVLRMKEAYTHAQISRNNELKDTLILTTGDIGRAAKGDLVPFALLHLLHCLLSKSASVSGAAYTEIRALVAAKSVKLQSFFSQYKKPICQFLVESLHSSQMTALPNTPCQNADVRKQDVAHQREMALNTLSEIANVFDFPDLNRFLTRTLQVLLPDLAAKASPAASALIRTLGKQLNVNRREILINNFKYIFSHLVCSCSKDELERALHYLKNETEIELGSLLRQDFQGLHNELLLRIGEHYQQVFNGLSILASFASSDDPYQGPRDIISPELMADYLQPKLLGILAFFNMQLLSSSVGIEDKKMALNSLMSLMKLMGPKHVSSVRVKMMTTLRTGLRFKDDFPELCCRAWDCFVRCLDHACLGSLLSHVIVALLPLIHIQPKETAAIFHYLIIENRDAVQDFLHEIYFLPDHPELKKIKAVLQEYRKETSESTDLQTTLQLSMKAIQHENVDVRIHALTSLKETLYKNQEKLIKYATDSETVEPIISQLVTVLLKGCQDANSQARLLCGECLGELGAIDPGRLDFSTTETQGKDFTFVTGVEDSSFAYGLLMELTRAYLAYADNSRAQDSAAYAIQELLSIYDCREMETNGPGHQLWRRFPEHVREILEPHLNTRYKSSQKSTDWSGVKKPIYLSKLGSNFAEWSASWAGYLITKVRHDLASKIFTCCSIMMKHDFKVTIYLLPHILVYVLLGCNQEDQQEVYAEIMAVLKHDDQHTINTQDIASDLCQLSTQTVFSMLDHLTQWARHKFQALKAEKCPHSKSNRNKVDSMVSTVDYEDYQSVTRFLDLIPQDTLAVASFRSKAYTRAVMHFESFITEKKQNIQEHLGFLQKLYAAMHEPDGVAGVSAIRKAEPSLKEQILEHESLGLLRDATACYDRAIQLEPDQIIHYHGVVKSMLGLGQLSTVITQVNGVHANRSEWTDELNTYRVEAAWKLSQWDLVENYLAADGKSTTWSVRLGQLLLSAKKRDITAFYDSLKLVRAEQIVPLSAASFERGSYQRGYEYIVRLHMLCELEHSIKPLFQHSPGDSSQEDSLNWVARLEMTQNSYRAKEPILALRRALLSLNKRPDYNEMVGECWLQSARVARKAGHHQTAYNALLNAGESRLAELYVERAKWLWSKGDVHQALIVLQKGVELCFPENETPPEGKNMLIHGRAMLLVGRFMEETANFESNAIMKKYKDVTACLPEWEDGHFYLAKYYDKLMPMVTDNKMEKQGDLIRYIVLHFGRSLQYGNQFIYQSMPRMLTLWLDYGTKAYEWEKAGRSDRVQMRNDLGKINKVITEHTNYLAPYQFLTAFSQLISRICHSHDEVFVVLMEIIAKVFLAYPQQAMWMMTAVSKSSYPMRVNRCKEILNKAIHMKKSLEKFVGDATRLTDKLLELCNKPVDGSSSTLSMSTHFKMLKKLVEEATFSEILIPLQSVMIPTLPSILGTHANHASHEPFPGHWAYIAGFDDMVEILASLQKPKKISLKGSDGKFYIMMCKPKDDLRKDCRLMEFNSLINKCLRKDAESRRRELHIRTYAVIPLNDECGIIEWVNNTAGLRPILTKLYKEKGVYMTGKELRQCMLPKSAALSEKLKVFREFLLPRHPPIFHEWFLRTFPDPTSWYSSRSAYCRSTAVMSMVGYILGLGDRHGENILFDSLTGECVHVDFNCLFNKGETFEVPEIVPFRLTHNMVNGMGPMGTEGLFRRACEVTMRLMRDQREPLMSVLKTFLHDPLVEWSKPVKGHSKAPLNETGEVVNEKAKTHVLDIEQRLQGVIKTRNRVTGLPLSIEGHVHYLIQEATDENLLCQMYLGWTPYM
Sequence of Mitogen-activated protein kinase 11 (Q15759 whole entry): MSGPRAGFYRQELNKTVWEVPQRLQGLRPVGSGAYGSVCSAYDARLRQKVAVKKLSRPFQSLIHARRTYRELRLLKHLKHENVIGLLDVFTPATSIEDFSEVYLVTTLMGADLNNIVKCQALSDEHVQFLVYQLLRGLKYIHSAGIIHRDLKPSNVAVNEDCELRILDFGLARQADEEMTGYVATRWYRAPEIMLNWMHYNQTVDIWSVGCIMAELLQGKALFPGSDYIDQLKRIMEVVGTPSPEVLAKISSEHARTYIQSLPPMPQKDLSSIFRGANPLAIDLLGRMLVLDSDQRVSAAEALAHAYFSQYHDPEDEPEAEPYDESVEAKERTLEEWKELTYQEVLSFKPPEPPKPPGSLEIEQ
Sequence of Tyrosine-protein kinase CSK (P41240 whole entry): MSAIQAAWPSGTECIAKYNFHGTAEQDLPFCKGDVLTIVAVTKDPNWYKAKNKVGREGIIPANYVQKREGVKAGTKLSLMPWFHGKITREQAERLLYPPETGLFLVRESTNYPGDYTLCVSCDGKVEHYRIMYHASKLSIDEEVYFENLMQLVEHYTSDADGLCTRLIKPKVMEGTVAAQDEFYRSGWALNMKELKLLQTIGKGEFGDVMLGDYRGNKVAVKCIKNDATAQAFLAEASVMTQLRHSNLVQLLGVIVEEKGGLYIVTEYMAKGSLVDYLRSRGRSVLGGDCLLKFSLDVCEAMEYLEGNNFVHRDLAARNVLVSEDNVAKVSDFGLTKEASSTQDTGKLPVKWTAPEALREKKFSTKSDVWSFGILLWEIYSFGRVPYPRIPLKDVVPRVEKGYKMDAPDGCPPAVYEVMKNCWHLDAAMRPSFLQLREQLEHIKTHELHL
Sequence of Mitogen-activated protein kinase 14 (Q16539 whole entry): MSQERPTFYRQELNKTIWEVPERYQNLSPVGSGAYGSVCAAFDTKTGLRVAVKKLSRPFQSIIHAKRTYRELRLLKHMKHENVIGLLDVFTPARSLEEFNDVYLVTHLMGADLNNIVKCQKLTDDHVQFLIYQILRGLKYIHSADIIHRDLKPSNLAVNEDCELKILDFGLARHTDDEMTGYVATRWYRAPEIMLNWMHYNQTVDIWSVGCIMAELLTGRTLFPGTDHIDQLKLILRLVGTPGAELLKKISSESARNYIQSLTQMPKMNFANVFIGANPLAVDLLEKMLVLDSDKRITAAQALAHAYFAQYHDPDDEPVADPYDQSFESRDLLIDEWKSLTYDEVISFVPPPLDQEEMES

With `CNC(=O)c1cccc(-c2ccc3c(N4CCOC[C@@H]4C)nc(N4CCOC[C@@H]4C)nc3n2)c1` [VISTUSERTIB], the Kd (in experiment [1]; in experiment [2]; in experiment [3]; in experiment [4]; on GTP-binding protein 4; in experiment [5]) was > 30 µM (inactive) in each case. Also, the Kd in experiment [6], in experiment [7] and in experiment [8] was > 30 µM (inactive) each time.
Consider `Cc1cc(Nc2nc(N[C@@H](C)c3ncc(F)cn3)ncc2Cl)n[nH]1` [AZD-1480], for which the Kd (in experiment [1]; in experiment [2]; in experiment [3]; in [4]; at GTP-binding protein 4; in experiment [5]) was > 30 µM (inactive) each time. For the same molecule, the Kd in [6], in [7] and in [8] was > 30 µM (inactive) each time.
For the molecule `O=C(Nc1ccc(OC(F)(F)F)cc1)c1sccc1NCc1ccnc2ccccc12` [OSI-930], the Kd (in [1]; in experiment [2]; in experiment [3]; in experiment [4]; at GTP-binding protein 4; in [5]) was > 30 µM (inactive) each time. In addition, the Kd in [6], in experiment [7] and in experiment [8] was > 30 µM (inactive) throughout.
`CN1CCN(c2nc(C3=C(c4c[nH]c5ccccc45)C(=O)NC3=O)c3ccccc3n2)CC1` [SOTRASTAURIN]: the Kd in experiment [1] was > 30 µM (inactive); in experiment [2], > 30 µM (inactive); in experiment [3] it was 0.709 µM (active); in [4] it was > 30 µM (inactive); at GTP-binding protein 4, 8.2 µM; in experiment [5], > 30 µM (inactive). Also, the Kd in [6], in experiment [7] and in [8] was > 30 µM (inactive) each time.
`CNC(=O)c1ccc(Nc2ncc(C(F)(F)F)c(NCc3nccnc3N(C)S(C)(=O)=O)n2)cc1` [DEFACTINIB]: the dissociation constant (Kd) in [1] is 9.05 µM (active); in experiment [2] it was > 30 µM (inactive); in experiment [3], 1.32 µM (active); in experiment [4], > 30 µM (inactive); on GTP-binding protein 4 it was > 30 µM (inactive); in experiment [5], > 30 µM (inactive). The Kd in experiment [6], in experiment [7] and in experiment [8] was > 30 µM (inactive) in each case.
With `Cc1c(Cn2c(C)nc3c(C(=O)O)cc(N4CCOCC4)cc32)cccc1C(F)(F)F` [GSK-2636771], the Kd (in experiment [1]; in [2]; in [3]; in experiment [4]; at GTP-binding protein 4; in experiment [5]) was > 30 µM (inactive) each time. Moreover, the Kd in experiment [6], in experiment [7] and in [8] was > 30 µM (inactive) in each case.
Turning to `Cn1cc(-c2[nH]c3cc(NC(=O)[C@H](N)C4CCCCC4)cc4c3c2C=NNC4=O)cn1`, the Kd in [1] was 0.363 µM (active); in experiment [2] it was > 30 µM (inactive); in experiment [3], > 30 µM (inactive); in [4], > 30 µM (inactive); on GTP-binding protein 4 it was > 30 µM (inactive); in experiment [5], > 30 µM (inactive). For the same molecule, the figures for the Kd in [6], in [7] and in [8] were 1.54 µM (active), > 30 µM (inactive) and > 30 µM (inactive), respectively.
In the case of `C[C@@H]1COC(Nc2ccc3ncnc(Nc4ccc(OCc5nccs5)c(Cl)c4)c3c2)=N1` [VARLITINIB], the Kd (in experiment [1]; in experiment [2]; in experiment [3]; in [4]; at GTP-binding protein 4; in experiment [5]) was > 30 µM (inactive) in each case. For the same molecule, the Kd in experiment [6], in experiment [7] and in [8] was > 30 µM (inactive) each time.
For `CCc1cc2c(cc1N1CCC(N3CCOCC3)CC1)C(C)(C)c1[nH]c3cc(C#N)ccc3c1C2=O` [ALECTINIB], the Kd (in experiment [1]; in experiment [2]; in experiment [3]; in experiment [4]; on GTP-binding protein 4; in experiment [5]) was > 30 µM (inactive) throughout. The Kd in experiment [6], in experiment [7] and in experiment [8] was > 30 µM (inactive) throughout.
As to `C#Cc1cccc(Nc2ncnc3cc4c(cc23)OCCOCCOCCO4)c1` [ICOTINIB], the Kd (in [1]; in experiment [2]; in [3]; in experiment [4]; at GTP-binding protein 4; in experiment [5]) was > 30 µM (inactive) each time. The Kd in [6], in experiment [7] and in [8] was > 30 µM (inactive) in each case.
As for `COc1ccc2c(OCc3nnc4ccc(-c5ccccc5)nn34)ccnc2c1` [AMG-208], the Kd (in experiment [1]; in [2]; in [3]; in experiment [4]; on GTP-binding protein 4; in [5]) was > 30 µM (inactive) in each case. In addition, the Kd in experiment [6], in experiment [7] and in experiment [8] was > 30 µM (inactive) throughout.
With `Cc1cc(-c2cc(OC(=O)c3ccccc3)ccc2Cl)cc2nnc(Nc3ccc(OCCN4CCCC4)cc3)nc12` [TG100-801], the Kd (in experiment [1]; in experiment [2]; in experiment [3]; in [4]; at GTP-binding protein 4; in [5]) was > 30 µM (inactive) throughout. Besides, the Kd in experiment [6], in experiment [7] and in experiment [8] was > 30 µM (inactive) in each case.
For `COc1cc2ncnc(Nc3ccc(O)cc3)c2cc1OC` [WHI-P131], the Kd (in experiment [1]; in [2]; in experiment [3]; in experiment [4]; at GTP-binding protein 4; in experiment [5]) was > 30 µM (inactive) in each case. Also, the Kd in experiment [6], in experiment [7] and in [8] was > 30 µM (inactive) each time.
